Data: patent US11760764B2, “Methods and compositions for targeting PD-L1” (Aligos Therapeutics, Inc., priority 2020, dated 2023)
Like-named read-outs stand apart in the source and are kept apart here.

Assays:
[1] = molecular target: T1, PD-1/PD-L1 interaction (Jurkat cells overexpressing PD-1 co-cultured with PD-L1 expressing CHO cells) (Homo sapiens, UniProt Q9NZQ7); assay: PD-1/PD-L1 NFAT Reporter Assay; assay type: cell-based; conditions: Table C-1; Jurkat/CHO co-culture, 6 hrs at 37° C., luciferase activity
T1 construct: expressed in transfected cells; Jurkat cells (PD-1 and NF-AT luciferase construct)
T1 sequence (Q9NZQ7 19-290): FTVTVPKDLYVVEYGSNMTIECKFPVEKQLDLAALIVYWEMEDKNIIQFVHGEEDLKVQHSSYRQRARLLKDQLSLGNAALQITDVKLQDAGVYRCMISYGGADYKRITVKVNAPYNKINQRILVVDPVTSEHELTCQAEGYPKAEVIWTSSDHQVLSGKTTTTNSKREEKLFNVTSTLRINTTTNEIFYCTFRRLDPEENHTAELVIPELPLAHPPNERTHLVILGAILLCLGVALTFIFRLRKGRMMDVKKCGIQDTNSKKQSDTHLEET
Description: Blocking the PD-1/PD-L1 interaction will release the inhibitory signal and results in TCR signaling and NFAT-mediated luciferase activity.
CHO cells expressing surface-bound anti-CD3 antibodies and PD-L1 were first seeded overnight and treated with the compounds. Jurkat cells overexpressing PD-1 and a luciferase construct under NF-AT promoter were then immediately seeded on the monolayer of CHO cells. The co-culture was then incubated for 6 hrs at 37° C. Luciferase activity was assessed by adding the ONE-Glo reagent and measuring luminescence with a plate reader. EC50s values were determined from the fit of the dose-response curves

[2] = molecular target: PD-1/PD-L1 interaction (PDL1-6×His protein, PD1-Fc-Avi-Biotin protein) (Homo sapiens, UniProt Q9NZQ7); assay: PDL1/PD1 Binding Assay; conditions: 0.3 nM PDL1, 2.5 nM PD1
Chain of PD-1/PD-L1 interaction (PDL1-6×His protein, PD1-Fc-Avi-Biotin protein) (Q9NZQ7 19-238 limits assumed): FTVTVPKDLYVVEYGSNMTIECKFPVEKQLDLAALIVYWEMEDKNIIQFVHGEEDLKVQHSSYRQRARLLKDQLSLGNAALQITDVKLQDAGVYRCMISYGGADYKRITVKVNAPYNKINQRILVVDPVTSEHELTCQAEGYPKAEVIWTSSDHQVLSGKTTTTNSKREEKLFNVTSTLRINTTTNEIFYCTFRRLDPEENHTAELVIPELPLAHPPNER
Description: Compounds to be tested were serially diluted in DMSO, and further diluted in assay buffer (25 mM Hepes pH 7.4, 150 mM NaCl, 0.005% Tween 20, BSA 0.01%). Diluted compounds were added to the wells with final concentration of DMSO at 1%. PDL1-6×His protein was added to the wells, mixed well with compound. The plates were incubated for 30 min at room temperature. PD1-Fc-Avi-Biotin protein was added to the wells. […] After a binding time of 30 min at room temperature, Anti-6×His Acceptor beads (final concentration 20 ug/ml) were added to the wells, and the incubation continued for 1 h. Streptavidin Donor beads (final concentration 20 ug/mL) were added at reduced light. The plates were sealed with foil and incubated in the dark for additional 1 h or overnight before reading on an Envision reader. The IC50s were determined by fitting the curves using a four-parameter equation in Graphpad Prism 8.

[3] = Table C-1, read-out: Biological Data Biochem PD-1/PD-L1
[4] = Table C, read-out: PD-1/PD-L1 PPI IC50

| EC50 [1] [nM] | IC50 [2, 3] [nM] | PD-1/PD-L1 NFAT Reporter Assay [1] | IC50 [2, 4] [nM] | SMILES |
| --- | --- | --- | --- | --- |
| 10 to 100 | – | – | – | COc1cc(-c2cccc(-c3cccc(-c4cc5c(c(OC)c4)[C@H](NC[C@@H]4CCC(=O)N4)CC5)c3Cl)c2Cl)cc2c1[C@H](NC[C@@H]1CCC(=O)N1)CC2 (single isomer, unassigned) [Compound L-1] |
| > 10000 | – | – | – | COc1cc(-c2cccc(-c3cccc(-c4cc5c(c(OC)c4)[C@@H](NC[C@@H]4CCC(=O)N4)CC5)c3Cl)c2Cl)cc2c1[C@@H](NC[C@@H]1CCC(=O)N1)CC2 (single isomer, unassigned) [Compound L-2] |
| 100 to 1000 | ≤ 10 | – | – | CCOC(=O)C1CN([C@H]2CCc3cc(-c4cccc(-c5cccc(-c6cc7c(c(OC)c6)[C@@H](N6CC(C(=O)OCC)C6)CC7)c5Cl)c4Cl)cc(OC)c32)C1 (single isomer, unassigned) [Compound L-4] |
| – | 100 to 1000 | n.r | – | CCOC(=O)C1CN([C@@H]2CCc3cc(-c4cccc(-c5cccc(-c6cc7c(c(OC)c6)[C@H](N6CC(C(=O)OCC)C6)CC7)c5Cl)c4Cl)cc(OC)c32)C1 (single isomer, unassigned) [Compound L-5] |
| 1000 to 10000 | ≤ 10 | – | – | CCOC(=O)C1CN([C@H]2CCc3cc(-c4cccc(-c5cccc(-c6ccc7c(c6)CC[C@@H]7N6CC(C(=O)OCC)C6)c5Cl)c4Cl)ccc32)C1 (single isomer, unassigned) [Compound L-6] |
| 100 to 1000 | ≤ 10 | – | – | CCOC(=O)C1CN([C@@H]2CCc3cc(-c4cccc(-c5cccc(-c6ccc7c(c6)CC[C@H]7N6CC(C(=O)OCC)C6)c5Cl)c4Cl)ccc32)C1 (single isomer, unassigned) [Compound L-7] |
| ≤ 10 | ≤ 10 | – | ≤ 10 | COc1nc(-c2cccc(-c3cccc(-c4cc5c(c(OC)n4)[C@@H](N4CC6(CCC(=O)N6)C4)CC5)c3Cl)c2F)cc2c1[C@@H](N1CC3(CCC(=O)N3)C1)CC2 (single isomer, unassigned) [Compound L-9] |
| > 10000 | ≤ 10 | – | ≤ 10 | COc1nc(-c2cccc(-c3cccc(-c4cc5c(c(OC)n4)[C@@H](N4CC6(CN(C(C)=O)C6)C4)CC5)c3Cl)c2F)cc2c1[C@@H](N1CC3(CN(C(C)=O)C3)C1)CC2 (single isomer, unassigned) [Compound L-10] |
| ≤ 10 | ≤ 10 | – | ≤ 10 | COc1nc(-c2cccc(-c3cccc(-c4cc5c(c(OC)n4)[C@H](N4CC6(CN(C(C)=O)C6)C4)CC5)c3Cl)c2F)cc2c1[C@H](N1CC3(CN(C(C)=O)C3)C1)CC2 (single isomer, unassigned) [Compound L-11] |
| 100 to 1000 | ≤ 10 | – | – | CCOC(=O)C1CN([C@H]2CCc3cc(-c4cccc(-c5cccc(-c6ccc7c(c6)CC[C@@H]7N6CC(C(=O)O)C6)c5Cl)c4Cl)ccc32)C1 (single isomer, unassigned) [Compound M-2A] |
| 100 to 1000 | ≤ 10 | – | – | O=C(O)C1CN([C@H]2CCc3cc(-c4cccc(-c5cccc(-c6ccc7c(c6)CC[C@@H]7N6CC(C(=O)O)C6)c5Cl)c4Cl)ccc32)C1 (single isomer, unassigned) [Compound M-2B] |
| 100 to 1000 | ≤ 10 | – | – | CCOC(=O)C1CN([C@@H]2CCc3cc(-c4cccc(-c5cccc(-c6ccc7c(c6)CC[C@H]7N6CC(C(=O)O)C6)c5Cl)c4Cl)ccc32)C1 (single isomer, unassigned) [Compound M-3A] |
| 100 to 1000 | ≤ 10 | – | – | O=C(O)C1CN([C@@H]2CCc3cc(-c4cccc(-c5cccc(-c6ccc7c(c6)CC[C@H]7N6CC(C(=O)O)C6)c5Cl)c4Cl)ccc32)C1 (single isomer, unassigned) [Compound M-3B] |
| – | 10 to 100 | n.r | – | COc1cc(-c2cccc(-c3cccc(-c4cc5c(c(OC)c4)[C@H](N4CC(C(=O)O)C4)CC5)c3Cl)c2Cl)cc2c1[C@H](N1CC(C(=O)O)C1)CC2 (single isomer, unassigned) [Compound M-4B] |
| 10 to 100 | – | – | – | CCOC(=O)C1CN([C@H]2CCc3cc(-c4cccc(-c5cccc(-c6cc7c(c(OC)n6)[C@@H](NC[C@@H]6CCC(=O)N6)CC7)c5Cl)c4Cl)nc(OC)c32)C1 (single isomer, unassigned) [Compound N-1A] |
| ≤ 10 | – | – | – | COc1nc(-c2cccc(-c3cccc(-c4cc5c(c(OC)n4)[C@@H](N4CC(C(=O)O)C4)CC5)c3Cl)c2Cl)cc2c1[C@@H](NC[C@@H]1CCC(=O)N1)CC2 (single isomer, unassigned) [Compound N-1B] |
| – | – | n.r | – | CCOC(=O)C1CN([C@H]2CCc3cc(-c4cccc(-c5cccc(-c6cc7c(c(OC)c6)[C@@H](NC[C@@H]6CCC(=O)N6)CC7)c5Cl)c4Cl)cc(OC)c32)C1 (single isomer, unassigned) [Compound N-2A] |
| 100 to 1000 | – | – | – | COc1cc(-c2cccc(-c3cccc(-c4cc5c(c(OC)c4)[C@@H](N4CC(C(=O)O)C4)CC5)c3Cl)c2Cl)cc2c1[C@@H](NC[C@@H]1CCC(=O)N1)CC2 (single isomer, unassigned) [Compound N-2B] |
| 10 to 100 | – | – | – | CCOC(=O)C1CN([C@H]2CCc3cc(-c4cccc(-c5cccc(-c6cc7c(c(OC)c6)[C@H](NC[C@@H]6CCC(=O)N6)CC7)c5Cl)c4Cl)cc(OC)c32)C1 (single isomer, unassigned) [Compound N-3A] |

| EC50 [1] [nM] | IC50 [2, 3] [nM] | PD-1/PD-L1 NFAT Reporter Assay [1] | IC50 [2, 4] [nM] | SMILES |
| --- | --- | --- | --- | --- |
| 10 to 100 | – | – | – | COc1cc(-c2cccc(-c3cccc(-c4cc5c(c(OC)c4)[C@@H](N4CC(C(=O)O)C4)CC5)c3Cl)c2Cl)cc2c1[C@H](NC[C@@H]1CCC(=O)N1)CC2 (single isomer, unassigned) [Compound N-3B] |
| 100 to 1000 | – | – | – | CCOC(=O)C1CN(C2CCc3cc(-c4cccc(-c5cccc(-c6cc7c(c(OC)n6)CCN(CCOC)C7)c5Cl)c4Cl)cc(OC)c32)C1 (single isomer, unassigned) [Compound O-2A] |
| – | – | – | 1000 to 10000 | O=C(O)C[C@H](O)CN1CCOc2nc(-c3cccc(-c4cccc(-c5ccc6c(n5)OCCN(C[C@@H](O)CC(=O)O)C6)c4Cl)c3Cl)ccc2C1 [Compound C-5] |
| – | – | – | ≤ 10 | O=C(O)C[C@H](O)CN1CCc2ccc(-c3cccc(-c4cccc(-c5ccc6c(c5)CN(C[C@@H](O)CC(=O)O)CC6)c4Cl)c3Cl)cc2C1 [Compound C-6] |
| – | – | – | 100 to 1000 | CC1(C)CN(C[C@@H](O)CC(=O)O)Cc2ccc(-c3cccc(-c4cccc(-c5ccc6c(c5)C(C)(C)CN(C[C@@H](O)CC(=O)O)C6)c4Cl)c3Cl)cc21 [Compound C-7] |
| – | – | – | ≤ 10 | O=C(O)C[C@H](O)CN1CCc2cc(-c3cccc(-c4cccc(-c5cc(F)c6c(c5)CCN(C[C@@H](O)CC(=O)O)C6)c4Cl)c3Cl)cc(F)c2C1 [Compound C-8] |
| – | – | – | ≤ 10 | CC1Cc2cc(-c3cccc(-c4cccc(-c5ccc6c(c5)CC(C)N(C[C@@H](O)CC(=O)O)C6)c4Cl)c3Cl)ccc2CN1C[C@@H](O)CC(=O)O (stereo partly drawn) [Compound C-9] |
| – | – | – | 100 to 1000 | CCOC(=O)CN[C@H]1CCc2cc(-c3cccc(-c4cccc(-c5ccc6c(c5)CC[C@@H]6NCC(=O)OCC)c4Cl)c3Cl)ccc21 [Compound F-1] |
| – | – | – | ≤ 10 | O=C(O)CN1CCc2ccc(-c3cccc(-c4cccc(-c5ccc6c(c5)CN(CC(=O)O)CC6)c4Cl)c3Cl)cc2C1 [Compound H-1] |
| – | – | – | ≤ 10 | O=C(O)CN1CCc2cc(-c3cccc(-c4cccc(-c5ccc6c(c5)CCN(CC(=O)O)C6)c4Cl)c3Cl)ccc2C1 [Compound H-2] |
| – | – | – | 100 to 1000 | O=C(O)CN1CCC12CCc1cc(-c3cccc(-c4cccc(-c5ccc6c(c5)CCC5(CCN5CC(=O)O)C6)c4Cl)c3Cl)ccc1C2 (stereo not drawn) [Compound H-3] |
| – | – | – | 10 to 100 | O=C(O)CN1CC2(C1)OCc1cc(-c3cccc(-c4cccc(-c5ccc6c(c5)COC65CN(CC(=O)O)C5)c4Cl)c3Cl)ccc12 [Compound H-4] |
| – | – | – | > 10000 | CC(=O)N1CC(N2CCOc3nc(-c4cccc(-c5cccc(-c6ccc7c(n6)OCCN(C6CN(C(C)=O)C6)C7)c5Cl)c4Cl)ccc3C2)C1 [Compound I-1] |
| – | – | – | 10 to 100 | N[C@@H](CC(=O)O)C(=O)N1CCc2ccc(-c3cccc(-c4cccc(-c5ccc6c(c5)CN(C(=O)[C@@H](N)CC(=O)O)CC6)c4Cl)c3Cl)cc2C1 [Compound J-1] |
| – | – | – | 1000 to 10000 | Clc1c(-c2ccc3c(c2)CCNC3)cccc1-c1cccc(-c2ccc3c(c2)CCN(c2ncccn2)C3)c1Cl [Compound K-1] |
| ≤ 10 | – | – | – | COc1nc(-c2cccc(-c3cccc(-c4cc5c(c(OC)n4)[C@@H](NC[C@@H]4CCC(=O)N4)CC5)c3Cl)c2Cl)cc2c1[C@@H](NC[C@@H]1CCC(=O)N1)CC2 [Compound L-3] |
| ≤ 10 | ≤ 10 | – | ≤ 10 | COc1nc(-c2cccc(-c3cccc(-c4cc5c(c(OC)n4)[C@@H](NC[C@@H]4CCC(=O)N4)CC5)c3Cl)c2F)cc2c1[C@@H](NC[C@@H]1CCC(=O)N1)CC2 [Compound L-8] |
| 10 to 100 | – | – | – | COCCN1CCc2c(cc(-c3cccc(-c4cccc(-c5cc6c(c(OC)c5)[C@@H](N5CC(C(=O)O)C5)CC6)c4Cl)c3Cl)nc2OC)C1 [Compound O-2B] |
